For one assay, the target named is T1, recombinant BRD4 BD1 (Homo sapiens, UniProt O60885).
T1 construct: for recombinant BRD4 BD1 and BRD4 BD2 proteins
Description: Competitive fluorescence-polarization (FP) binding assay, BRD4 BD1. Note: probe 1.5 nM. The following applies: competitive FP assay; protein 10 nM, probe […]; read-out: IC50 (nM) BRD4 BD1. In short, it runs like this: (§1)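 FP competition with FAM-labelled probe (ZBA248 or BRD-1F) against preincubated protein/probe complex; BD1 at 10 nM and BD2 at 6 nM final, in 100 mM potassium phosphate pH 6.5, 0.01% Triton X-100. 30 min, room temperature. IC50 by nonlinear regression; Ki also derived, using probe Kd from protein saturation.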

The target of the next assay is T2, recombinant BRD4 BD2 (Homo sapiens, UniProt O60885).
T2 construct: for recombinant BRD4 BD1 and BRD4 BD2 proteins
As to the kind of experiment: Competitive fluorescence-polarization (FP) binding assay, BRD4 BD2. Note: probe 1.5 nM. The following applies: competitive FP assay; protein 6 nM, probe […]; read-out: IC50 (nM) BRD4 BD2. In short, it runs like this: as §1

The next assay concerns MOLM-13. As to the kind of experiment: Cell growth inhibition, MOLM-13 leukemia cells (CellTiter-Glo). The following applies: Homo sapiens, MOLM-13, 96 h; 4 days; read-out: IC50 (nM) MOLM-13 Cell Line (CellTiter-Glo assay). The assay is classed as cell-based. The essentials:
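MOLM-13 leukemia cells treated with compounds; viability read by CellTiter-Glo luminescence after 10-20 min reagent incubation at room temperature. IC50 derived from luminescent signal.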

In the next assay the test system is MDA-MB-436. As to the kind of experiment: Cell growth inhibition, MDA-MB-436 breast cancer cells (WST-8). The following applies: Homo sapiens, MDA-MB-436, 96 h; 4 days; read-out: IC50 (nM) MDA-MB-436 Cell Line (WST assay). The assay is classed as cell-based. The essentials: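 IC50 was computed from WST-8-based cell counting in MDA-MB-436 cells, with absorbance read at 450 nm.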

Each structure is given as a SMILES string.

For `COc1cc2c(cc1-c1c(C)noc1C)[nH]c1nc(C)nc(Nc3cc(C)n(C)n3)c12` [Cpd. No. 115, N-(1,5-Dimethyl-1H-pyrazol-3-yl)-7-(3,5-dimethylisoxazol-4-yl)-6-methoxy-2-methyl-9H-pyrimido[4,5-b]indol-4-amine], the IC50 at recombinant BRD4 BD1 is 23.2 nM; at recombinant BRD4 BD2 it was 136 nM; in the assay with MOLM-13, 30.7 nM; in the assay on MDA-MB-436 it was 81.1 nM.
For `COc1cc2c(cc1-c1c(C)noc1C)[nH]c1nc(C)nc(Nc3cc(C)nn3C3CC3)c12` [Cpd. No. 192, N-(1-cyclopropyl-3-methyl-1H-pyrazol-5-yl)-7-(3,5-dimethylisoxazol-4-yl)-6-methoxy-2-methyl-9H-pyrimido[4,5-b]indol-4-amine], in that order: 30.1 nM, 114 nM, 114 nM and 422 nM.
The corresponding values for `COc1cc2c(cc1-c1c(C)noc1C)[nH]c1nc(C)nc(Nc3sc(C)nc3C)c12` [Cpd. No. 177, N-(7-(3,5-dimethylisoxazol-4-yl)-6-methoxy-2-methyl-9H-pyrimido[4,5-b]indol-4-yl)-2,4-dimethylthiazol-5-amine] are 7.9 nM, 13.2 nM, 78.6 nM and 110 nM.
The corresponding values for `COc1cc2c(cc1-c1c(C)noc1C)[nH]c1nc(C)nc(Nc3cc(C4CC4)nn3C3CC3)c12` [Cpd. No. 152, N-(1,3-Dicyclopropyl-1H-pyrazol-5-yl)-7-(3,5-dimethylisoxazol-4-yl)-6-methoxy-2-methyl-9H-pyrimido[4,5-b]indol-4-amine] are 10.6 nM, 5.6 nM, 19 nM and 34 nM.
`CCn1nc(C2CC2)c(F)c1Nc1nc(C)nc2[nH]c3cc(-c4c(C)noc4C)c(OC)cc3c12` [Cpd. No. 250, N-(3-cyclopropyl-1-ethyl-4-fluoro-1H-pyrazol-5-yl)-7-(3,5-dimethylisoxazol-4-yl)-6-methoxy-2-methyl-9H-pyrimido[4,5-b]indol-4-amine]: the IC50 on recombinant BRD4 BD1 is 12 nM; at recombinant BRD4 BD2, 14 nM; in the assay with MOLM-13, 21 nM; in the assay with MDA-MB-436 it was 67 nM.
For the compound `CCc1nn(C)c(CC)c1Nc1nc(C)nc2[nH]c3cc(-c4c(C)noc4C)c(OC)cc3c12` [Cpd. No. 240, N-(3,5-diethyl-1-methyl-1H-pyrazol-4-yl)-7-(3,5-dimethylisoxazol-4-yl)-6-methoxy-2-methyl-9H-pyrimido[4,5-b]indol-4-amine], the IC50 came to 13 nM at recombinant BRD4 BD1, 20 nM at recombinant BRD4 BD2, 20 nM in the assay on MOLM-13 and 46 nM with MDA-MB-436.
`COc1cc2c(cc1-c1c(C)noc1C)[nH]c1nc(C)nc(Nc3cc(C(C)(C)C)ns3)c12` [Cpd. No. 133, 3-(tert-Butyl)-N-(7-(3,5-dimethylisoxazol-4-yl)-6-methoxy-2-methyl-9H-pyrimido[4,5-b]indol-4-yl)isothiazol-5-amine]: the IC50 was more than 1000 nM on recombinant BRD4 BD1, more than 1000 nM on recombinant BRD4 BD2, 433 nM in the assay on MOLM-13 and 47900 nM in the assay with MDA-MB-436.
Turning to `COc1cc2c(cc1-c1c(C)noc1C)[nH]c1nc(C)nc(Nc3cn(C)nc3C(C)C)c12` [Cpd. No. 181, 7-(3,5-dimethylisoxazol-4-yl)-N-(3-isopropyl-1-methyl-1H-pyrazol-4-yl)-6-methoxy-2-methyl-9H-pyrimido[4,5-b]indol-4-amine], the IC50 stood at 4.4 nM at recombinant BRD4 BD1, 10.2 nM at recombinant BRD4 BD2, 22.2 nM in the assay with MOLM-13 and 22.9 nM with MDA-MB-436.
On to `COc1cc2c(cc1-c1c(C)noc1C)[nH]c1nc(C)nc(Nc3cc(C)nn3C(C)C)c12` [Cpd. No. 9, 7-(3,5-Dimethylisoxazol-4-yl)-N-(1-isopropyl-3-methyl-1H-pyrazol-5-yl)-6-methoxy-2-methyl-9H-pyrimido[4,5-b]indol-4-amine], for which the IC50 on recombinant BRD4 BD1 stood at 6.1 nM; on recombinant BRD4 BD2, 6.3 nM; with MOLM-13 it was 5 nM; in the assay on MDA-MB-436, 29.6 nM.
`CCn1cc(Nc2nc(C)nc3[nH]c4cc(-c5c(C)noc5C)c(OC)cc4c23)c(C(C)C)n1` [Cpd. No. 199, 7-(3,5-dimethylisoxazol-4-yl)-N-(1-ethyl-3-isopropyl-1H-pyrazol-4-yl)-6-methoxy-2-methyl-9H-pyrimido[4,5-b]indol-4-amine]: the IC50 was found to be 13.3 nM on recombinant BRD4 BD1, 14.5 nM on recombinant BRD4 BD2, 30.5 nM in the assay with MOLM-13 and 67.9 nM in the assay with MDA-MB-436.
For `COc1cc2c(cc1-c1c(C)noc1C)[nH]c1nc(C)nc(Nc3nn(C)c4cccnc34)c12` [Cpd. No. 123, 7-(3,5-Dimethylisoxazol-4-yl)-6-methoxy-2-methyl-N-(1-methyl-1H-pyrazolo[4,3-b]pyridin-3-yl)-9H-pyrimido[4,5-b]indol-4-amine], in that order: 257 nM, 483 nM, 759 nM and 1420 nM.
For `COc1cc2c(cc1-c1c(C)noc1C)[nH]c1nc(C)nc(Nc3cn(C)nc3C(C)(C)O)c12` [compound 269, 2-(4-(7-(3,5-dimethylisoxazol-4-yl)-6-methoxy-2-methyl-9H-pyrimido[4,5-b]indol-4-ylamino)-1-methyl-1H-pyrazol-3-yl)propan-2-ol], the IC50 is 21.9 nM at recombinant BRD4 BD1, 35.1 nM at recombinant BRD4 BD2, 97.4 nM in the assay on MOLM-13 and 154 nM in the assay with MDA-MB-436.
Consider `CCn1ncc(C)c1Nc1nc(C)nc2[nH]c3cc(-c4c(C)noc4C)c(OC)cc3c12` [Cpd. No. 176, 7-(3,5-dimethylisoxazol-4-yl)-N-(1-ethyl-4-methyl-1H-pyrazol-5-yl)-6-methoxy-2-methyl-9H-pyrimido[4,5-b]indol-4-amine], for which the IC50 on recombinant BRD4 BD1 stood at 13.7 nM; at recombinant BRD4 BD2 it was 10.3 nM; in the assay on MOLM-13, 52.9 nM; in the assay with MDA-MB-436, 83.3 nM.
For `COc1cc2c(cc1-c1c(C)noc1C)[nH]c1nc(C)nc(Nc3c[nH]c4ncccc34)c12` [Cpd. No. 102, 7-(3,5-dimethylisoxazol-4-yl)-6-methoxy-2-methyl-N-(1H-pyrrolo[2,3-b]pyridin-3-yl)-9H-pyrimido[4,5-b]indol-4-amine], the IC50 at recombinant BRD4 BD1 turned out to be 18 nM; at recombinant BRD4 BD2, 17 nM; in the assay on MOLM-13 it was 510 nM; with MDA-MB-436, 363 nM.
For `COc1cc2c(cc1-c1c(C)noc1C)[nH]c1nc(C)nc(Nc3c(C(C)C)cnn3C)c12` [Cpd. No. 79, 7-(3,5-dimethylisoxazol-4-yl)-N-(4-isopropyl-1-methyl-1H-pyrazol-5-yl)-6-methoxy-2-methyl-9H-pyrimido[4,5-b]indol-4-amine], in that order: 9.3 nM, 1.8 nM, 43.9 nM and 121 nM.
The corresponding values for `COc1cc2c(cc1-c1c(C)noc1C)[nH]c1nc(C)nc(Nc3cnn4c3CCCC4)c12` [Cpd. No. 139, 7-(3,5-Dimethylisoxazol-4-yl)-6-methoxy-2-methyl-N-(4,5,6,7-tetrahydropyrazolo[1,5-a]pyridin-3-yl)-9H-pyrimido[4,5-b]indol-4-amine] are 16.3 nM, 16.5 nM, 49.2 nM and 110 nM.

The values above are taken from patent US9580430B2, “9H-pyrimido[4,5-B]indoles and related analogs as BET bromodomain inhibitors” (THE REGENTS OF THE UNIVERSITY OF MICHIGAN, priority 2014, dated 2017).
